Reference: patent US10689421B2, “Bacteriocin-producing Paenibacillus ehimensis and application thereof” (National Pingtung University of Science and Technology, priority 2018, dated 2020)

System: P. ehimensis NPUST-1
Experiment: Inhibition effect of aquacultural antibiotics against NPUST-1 strain (inhibitory zone)
Format: cell-based, Paenibacillus ehimensis
Parameters: inhibitory zone size: unit not given here
Details: TSB agar plate containing P. ehimensis NPUST-1; each antibiotic at its maximum concentration for aquaculture (Table 4)
From the text: To find out competent antibiotics for combination with NPUST-1 bacterial strain used as a probiotic, inhibition effect of varies aquacultural antibiotics against NPUST-1 bacterial strain are examined. Detailed testing steps are described as below.
Following antibiotics are examined: amoxicillin, ampicillin, doxycycline, erythromycin, furazolidone, flumequine, ormetoprim, oxytetracycline, sulfadimethoxine, chloramphenicol, gentamycin and kanamycin. The antibiotics concentration (shown in table 4) being tested are the available maximum concentration conformed to the drug regulation for aquaculture. After all the antibiotics are prepared, use TSB agar plate containing P. ehimensis NPUST-1 to determine the antibacterial activity and measure the inhibitory zone of antibiotics.

Molecule | inhibitory zone size
CC1(C)S[C@@H]2[C@H](NC(=O)[C@H](N)c3ccc(O)cc3)C(=O)N2[C@H]1C(=O)O [Amoxicillin, amoxicillin] | 2.30 ± 0.10
O=C(N[C@H](CO)[C@H](O)c1ccc([N+](=O)[O-])cc1)C(Cl)Cl [Chloramphenicol, chloramphenicol] | 2.67 ± 0.06
C[C@H]1c2cccc(O)c2C(=O)C2=C(O)[C@]3(O)C(=O)C(C(N)=O)=C(O)[C@@H](N(C)C)[C@@H]3[C@@H](O)[C@@H]21 [Doxycycline, doxycycline] | 3.30 ± 0.00
CC[C@H]1OC(=O)[C@H](C)[C@@H](O[C@H]2C[C@@](C)(OC)[C@@H](O)[C@H](C)O2)[C@H](C)[C@@H](O[C@@H]2O[C@H](C)C[C@H](N(C)C)[C@H]2O)[C@](C)(O)C[C@@H](C)C(=O)[C@H](C)[C@@H](O)[C@]1(C)O [Erythromycin, erythromycin] | 1.73 ± 0.06
CC1CCc2cc(F)cc3c(=O)c(C(=O)O)cn1c23 (centres unmarked) [Flumequine, flumequine] | 5.67 ± 0.06
O=C1OCCN1/N=C/c1ccc([N+](=O)[O-])o1 [Furazolidone, furazolidone] | 1.00 ± 0.00
NC[C@H]1O[C@H](O[C@H]2[C@H](O)[C@@H](O[C@H]3O[C@H](CO)[C@@H](O)[C@H](N)[C@H]3O)[C@H](N)C[C@@H]2N)[C@H](O)[C@@H](O)[C@@H]1O [Kanamycin, kanamycin] | 1.13 ± 0.03
COc1cc(C)c(Cc2cnc(N)nc2N)cc1OC [Ormetoprim, ormetoprim] | 4.60 ± 0.00
CN(C)[C@@H]1C(O)=C(C(N)=O)C(=O)[C@@]2(O)C(O)=C3C(=O)c4c(O)cccc4[C@@](C)(O)[C@H]3[C@H](O)[C@@H]12 [Oxytetracycline, oxytetracycline] | 2.13 ± 0.06
gentamycin | 2.03 ± 2.03

Same assay, conditions: in words

Molecule | resistance of the strain NPUST-1 against the antibiotic
CC1(C)S[C@@H]2[C@H](NC(=O)[C@H](N)c3ccccc3)C(=O)N2[C@H]1C(=O)O [Ampiciliin, ampicillin] | resistance
Cc1ccnc(NS(=O)(=O)c2ccc(N)cc2)n1 [sulfamerazine] | resistance

Same assay, conditions: in words; antibiotic at maximum concentration for aquaculture

Molecule | inhibition effect against P. ehimensis NPUST-1
CC1(C)S[C@@H]2[C@H](NC(=O)[C@H](N)c3ccccc3)C(=O)N2[C@H]1C(=O)O [Ampiciliin, ampicillin] | no inhibition effect
COc1cc(NS(=O)(=O)c2ccc(N)cc2)nc(OC)n1 [Sulfadimethoxine, sulfadimethoxine] | no inhibition effect
